The target of test [1] is Transient receptor potential cation channel subfamily V member 1 (Rattus norvegicus, UniProt O35433). Kind of test: Blockade of capsaicin-activated rat TRPV1 channel expressed in Xenopus oocytes. It is filed as cell-based, Oocyte.
For test [2], the target named is Glutamate NMDA receptor; Grin1/Grin2a (Rattus norvegicus, UniProt P35439+Q00959). Kind of test: Blockade of L-glutamate/glycine-activated rat NR1/NR2A NMDA receptor expressed in Xenopus oocytes. It is filed as cell-based, Oocyte.

SMILES strings stand for the structures.

Sequence of Glutamate NMDA receptor; Grin1/Grin2a (Q00959 whole entry, other chains not shown): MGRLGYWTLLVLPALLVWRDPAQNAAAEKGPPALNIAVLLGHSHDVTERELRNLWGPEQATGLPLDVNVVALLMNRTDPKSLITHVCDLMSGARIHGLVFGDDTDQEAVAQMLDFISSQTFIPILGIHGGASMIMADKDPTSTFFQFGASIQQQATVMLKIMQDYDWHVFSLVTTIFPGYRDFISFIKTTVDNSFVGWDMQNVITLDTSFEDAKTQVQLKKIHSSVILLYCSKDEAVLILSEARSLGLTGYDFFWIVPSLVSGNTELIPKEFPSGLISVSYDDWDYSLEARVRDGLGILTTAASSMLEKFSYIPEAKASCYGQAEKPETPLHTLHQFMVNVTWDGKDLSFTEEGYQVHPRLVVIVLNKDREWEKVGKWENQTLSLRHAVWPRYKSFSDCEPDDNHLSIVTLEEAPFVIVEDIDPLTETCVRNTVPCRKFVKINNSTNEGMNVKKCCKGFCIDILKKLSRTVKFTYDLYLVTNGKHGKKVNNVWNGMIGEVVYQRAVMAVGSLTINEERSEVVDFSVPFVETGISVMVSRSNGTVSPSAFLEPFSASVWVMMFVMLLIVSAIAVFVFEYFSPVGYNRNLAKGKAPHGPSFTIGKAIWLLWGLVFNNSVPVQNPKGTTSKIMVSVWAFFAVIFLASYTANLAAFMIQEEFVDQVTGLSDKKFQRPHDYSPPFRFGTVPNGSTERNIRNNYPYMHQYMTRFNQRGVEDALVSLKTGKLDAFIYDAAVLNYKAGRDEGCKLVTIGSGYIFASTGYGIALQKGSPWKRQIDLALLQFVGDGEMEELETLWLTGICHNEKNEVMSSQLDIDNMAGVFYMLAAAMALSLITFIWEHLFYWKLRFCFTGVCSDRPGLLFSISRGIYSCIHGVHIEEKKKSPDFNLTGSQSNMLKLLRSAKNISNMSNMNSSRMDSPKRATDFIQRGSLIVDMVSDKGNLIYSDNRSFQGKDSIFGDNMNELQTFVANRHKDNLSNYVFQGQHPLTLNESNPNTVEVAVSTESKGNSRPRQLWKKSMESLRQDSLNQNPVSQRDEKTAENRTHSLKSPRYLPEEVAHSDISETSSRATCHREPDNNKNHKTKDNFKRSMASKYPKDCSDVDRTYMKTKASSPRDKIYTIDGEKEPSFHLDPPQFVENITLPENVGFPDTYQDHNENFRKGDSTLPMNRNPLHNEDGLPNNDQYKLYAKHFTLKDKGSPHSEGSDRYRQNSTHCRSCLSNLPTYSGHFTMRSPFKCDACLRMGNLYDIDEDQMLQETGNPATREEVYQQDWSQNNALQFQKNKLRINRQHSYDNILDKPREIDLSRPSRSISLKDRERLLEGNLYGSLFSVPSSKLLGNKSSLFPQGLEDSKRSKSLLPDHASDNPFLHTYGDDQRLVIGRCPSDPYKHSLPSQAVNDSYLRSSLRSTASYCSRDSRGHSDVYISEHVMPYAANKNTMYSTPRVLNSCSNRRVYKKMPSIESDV
Sequence of Transient receptor potential cation channel subfamily V member 1 (O35433 whole entry): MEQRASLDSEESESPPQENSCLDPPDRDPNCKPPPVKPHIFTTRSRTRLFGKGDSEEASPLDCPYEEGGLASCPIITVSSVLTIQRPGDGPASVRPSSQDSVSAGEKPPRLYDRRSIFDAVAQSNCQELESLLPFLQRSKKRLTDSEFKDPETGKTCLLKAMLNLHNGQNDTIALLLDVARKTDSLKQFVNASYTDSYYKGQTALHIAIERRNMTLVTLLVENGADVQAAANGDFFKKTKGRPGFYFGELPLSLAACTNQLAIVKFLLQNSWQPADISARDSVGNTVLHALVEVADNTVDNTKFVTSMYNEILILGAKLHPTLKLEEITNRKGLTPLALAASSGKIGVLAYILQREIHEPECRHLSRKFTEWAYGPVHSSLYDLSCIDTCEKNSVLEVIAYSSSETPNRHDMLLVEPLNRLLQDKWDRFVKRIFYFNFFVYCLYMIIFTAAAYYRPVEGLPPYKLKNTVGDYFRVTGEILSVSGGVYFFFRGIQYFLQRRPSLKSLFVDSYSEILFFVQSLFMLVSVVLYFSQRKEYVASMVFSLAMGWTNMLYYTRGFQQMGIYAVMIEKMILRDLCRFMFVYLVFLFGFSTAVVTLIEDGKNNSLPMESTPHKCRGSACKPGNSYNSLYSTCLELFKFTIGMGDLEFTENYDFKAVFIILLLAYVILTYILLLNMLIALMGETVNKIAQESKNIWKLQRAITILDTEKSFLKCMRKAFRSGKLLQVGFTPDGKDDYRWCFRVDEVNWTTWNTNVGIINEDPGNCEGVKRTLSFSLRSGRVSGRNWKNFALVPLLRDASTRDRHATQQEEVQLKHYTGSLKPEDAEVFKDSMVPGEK

For the molecule `N=C(N)NCCC[C@H](N)C(=O)N(CCc1ccc(Cl)cc1Cl)CC(=O)NCCc1ccc(Cl)cc1Cl`, the results for the IC50 in test [1] and in test [2] were 170 nM and 800 nM, respectively. For the molecule `NC(=O)CN(CCc1ccc(Cl)cc1Cl)C(=O)CN(CCc1c[nH]c2ccccc12)C(=O)[C@@H](N)CCCN=C(N)N`, the half-inhibitory concentration (IC50) (as a rule, the midpoint of a concentration-inhibition curve) in test [1] is 520 nM; in test [2], 17000 nM. On the same counts, the results for `N=C(N)NCCC[C@H](N)C(=O)N(CCc1c[nH]c2ccccc12)CC(=O)N(CCc1c[nH]c2ccccc12)CC(N)=O` are 1330 nM and 207000 nM. As to `NC(N)=NCCC[C@H](N)C(=O)N(CCc1c[nH]c2ccccc12)CC(=O)NCCc1c[nH]c2ccccc12`, in test [2], 18000 nM corresponded to half-maximal inhibition (IC50). Turning to `N=C(N)NCCC[C@H](N)C(=O)N(CCc1ccc(Cl)cc1Cl)CC(=O)N(CCc1c[nH]c2ccccc12)CC(N)=O`, the values for the IC50 in test [1] and in test [2] were 180 nM and 166000 nM, respectively. As to `N=C(N)NCCC[C@H](N)C(=O)N(CCc1ccc(Cl)cc1Cl)CC(=O)N(CCc1ccc(Cl)cc1Cl)CC(N)=O`, the concentration for half-maximal inhibition (IC50) in test [1] came to 700 nM; in test [2], 15000 nM.

Consider `NCCCCCCN(CCc1ccc(Cl)cc1Cl)CC(=O)N(CCc1ccc(Cl)cc1Cl)CC(N)=O`, for which the IC50 in test [1] is 400 nM; in test [2], 3000 nM. As for `NC(N)=NCCC[C@H](N)C(=O)N[C@H]1C[C@@H](C(=O)NCCc2ccc(Cl)cc2Cl)N(Cc2ccc(Cl)cc2Cl)C1`, the IC50 came out at 700 nM in test [1] and 8000 nM in test [2].

The values are drawn from ChEMBL document CHEMBL1138312, “Design and synthesis of indole-based peptoids as potent noncompetitive antagonists of transient receptor potential vanilloid 1” (J Med Chem, 2007).
